{
  "source": "patent US8263637B2",
  "about": "“Methods for treatment of multiple myeloma using cyclopropane carboxylic acid {2-[(is)-1-(3-ethoxy-4-methoxy-phenyl)-2-methanesulfonyl-ethyl]-3-oxo-2,3-dihydro-1 h-isoindol-4-yl}-amide” (Celgene Corporation, priority 2002, dated 2012)",
  "key": {"TNF-α production": {"test_system": "TNF-α production", "assay": "Inhibition of TNF-α production following LPS-stimulation of human PBMC and human whole blood", "type": "cell-based", "settings": "in vitro studies; relative to thalidomide", "excerpt": "In a specific embodiment, the pharmacological properties of 3-(3,4-dimethoxy-phenyl)-3-(1-oxo-1,3-dihydro-isoindol-2-yl)-propionamide are characterized in in vitro studies. Studies examine the effects of the compound on the production of various cytokines. Inhibition of TNF-α production following LPS-stimulation of human PBMC and human whole blood by the compound is investigated in vitro. […] The pharmacological effects of 3-(3,4-dimethoxy-phenyl)-3-(1-oxo-1,3-dihydro-isoindol-2-yl)-propionamide may derive from its action as an inhibitor of the generation of inflammatory cytokines."}, "[1]": {"assay": "Cardiovascular and respiratory function in anesthetized dogs", "type": "in vivo, Beagle dogs", "protocol": "The effects of 3-(3,4-dimethoxy-phenyl)-3-(1-oxo-1,3-dihydro-isoindol-2-yl)-propionamide on cardiovascular and respiratory function are investigated in anesthetized dogs. Two groups of Beagle dogs (2/sex/group) are used. One group receives three doses of vehicle only and the other receives three ascending doses of the compound (200, 400, and 800 mg/kg). In all cases, doses of the compound or vehicle are successively administered via infusion through the jugular vein separated by intervals of at least 30 minutes.\nThe cardiovascular and respiratory changes induced by 3-(3,4-diethoxy-phenyl)-3-(1-oxo-1,3-dihydro-isoindol-2-yl)-propionamide are minimal at all doses when compared to the vehicle control group."}},
  "data": [
    {"smiles": "COc1ccc(C(CC(N)=O)N2Cc3ccccc3C2=O)cc1OC", "note": "(stereo not drawn) [3-(3,4-dimethoxy-phenyl)-3-(1-oxo-1,3-dihydro-isoindol-2-yl)-propionamide]", "values": [
      {"measurement": "pharmacological activity profile, times more potent than thalidomide", "setting": "TNF-α production", "result": "five to fifty"},
      {"measurement": "cardiovascular and respiratory changes compared to the vehicle control group", "setting": "[1]; all doses (200, 400, and 800 mg/kg), infusion through the jugular vein", "result": "minimal"},
      {"measurement": "deviations in femoral blood flow, respiratory parameters, and Qtc interval", "setting": "[1]; common to both the control and treated groups", "result": "not considered treatment-related"},
      {"measurement": "arterial blood pressure effect at higher doses", "setting": "[1]; higher doses", "result": "not seen"},
      {"measurement": "duration of the arterial blood pressure effect", "setting": "[1]; low dose", "result": "approximately 15 minutes"},
      {"measurement": "arterial blood pressure, difference between vehicle and treatment groups", "setting": "[1]; low dose, statistically significant", "result": "small increase"}
    ]}
  ]
}
